The values that follow are results of earlier work, collected in PMC8679591, “FAPI-74 PET/CT Using Either ^18F-AlF or Cold-Kit ^68Ga Labeling: Biodistribution, Radiation Dosimetry, and Tumor Delineation in Lung Cancer Patients” (Journal of Nuclear Medicine, 2021).

Consider `N[C@@H](Cc1ccc(OCC[18F])cc1)C(=O)O` [O-(2-^18F-fluoroethyl)-L-tyrosine], for which the Effective dose is listed as 0.016 mSv/MBq.

With `O=[N+]([O-])c1nccn1CC(O)C[18F]` (centres unmarked) [^18F-fluoromisonidazole], the Effective dose is listed as 0.013 mSv/MBq.

As for `O=C(O)CC[C@H](NC(=O)N[C@@H](CCCCNC(=O)[C@H](Cc1ccc2ccccc2c1)NC(=O)c1ccc(CNC(=O)[C@H](CCC(=O)O)NC(=O)[C@H](CCC(=O)O)NC(=O)c2ccc([18F])nc2)cc1)C(=O)O)C(=O)O` [^18F-PSMA-1007], the Effective dose is 0.022 mSv/MBq.

For `CC(C)(C)n1ncc(OCc2ccc(COCC[18F])cc2)c(Cl)c1=O` [^18F-flurpiridaz], the Effective dose is 0.019 mSv/MBq.

On to `N#C[C@@H]1CCCN1C(=O)CNC(=O)c1ccnc2ccc(OCCCN3CCN(C(=O)CN4CCN(CC(=O)O)CCN(CC(=O)O)CCN(CC(=O)O)CC4)CC3)cc12` [^68Ga-FAPI-2, metal not drawn], for which the Effective dose was 0.008–0.015 mSv/MBq.

With `N#C[C@@H]1CC(F)(F)CN1C(=O)CNC(=O)c1ccnc2ccc(OCCCN3CCN(C(=O)CN4CCN(CC(=O)O)CCN(CC(=O)O)CCN(CC(=O)O)CC4)CC3)cc12` [^68Ga-FAPI-4, metal not drawn], the Effective dose is on record as 0.008–0.015 mSv/MBq.

`N[C@@H](C[C@H](CCC[18F])C(=O)O)C(=O)O` [(S)-4-(3-^18F-fluoropropyl)-L-glutamic acid]: the Effective dose is 0.032 mSv/MBq.

Take `C[N+](C)(CF)CCO` [^18F-fluorocholine]: the Effective dose is 0.031 mSv/MBq.

Consider `CNc1ccc(/C=C/c2ccc(OCCOCCOCC[18F])cc2)cc1` [^18F-flurbetaben], for which the Effective dose is 0.015 mSv/MBq.

Consider `O=C([O-])CN(CCN(CC(=O)[O-])Cc1cc(CCC(=O)NCCCCCC(=O)NCCCC[C@H](NC(=O)N[C@@H](CCC(=O)O)C(=O)O)C(=O)O)ccc1[O-])Cc1cc(CCC(=O)O)ccc1[O-].[68Ga+3].[OH3+]` [^68Ga-PSMA-11], for which the Effective dose was 0.023 mSv/MBq.

Take `Cc1cn([C@H]2C[C@H]([18F])[C@@H](CO)O2)c(=O)[nH]c1=O` [^18F-3′-deoxy-3′-^18F-fluorothymidine, 3′-deoxy-3′-^18F-fluorothymidine]: the Effective dose was 0.028 mSv/MBq.
